Assay results reported in patent US20060057636A1 (priority 2002, published 2006).

Experiments:
Balb/C mice = conditions: in vivo, sc
NMRI mice = conditions: mouse, in vivo
recombinant bovine PrP = conditions: in vivo

For CGGRESQAYYQRGAS [PrP peptide 4], the “mean end-point titre, mouse no. 1” value (Balb/C mice) was 4.500, the “mean end-point titre, mouse no. 2” value (Balb/C mice) was 13.500 and the “mean end-point titre, mouse no. 3” value (Balb/C mice) was 13.500. The “mean end-point titre, mouse no. 4” value (Balb/C mice) was 40.500 and the “titres in NMRI mice compared with Balb/C” value (NMRI mice) was “the same or even higher titres”.

For CGQGGTHGQWNKP [PrP peptide 1], the “mean end-point titre, mouse no. 1” value (Balb/C mice) was 40.500, the “mean end-point titre, mouse no. 2” value (Balb/C mice) was 40.500 and the “mean end-point titre, mouse no. 3” value (Balb/C mice) was 40.500. The “mean end-point titre, mouse no. 4” value (Balb/C mice) was 40.500 and the “titres in NMRI mice compared with Balb/C” value (NMRI mice) was “the same or even higher titres”.

CGSDYEDRY [PrP peptide 5] was tested, and the “production of high-titered, PrP-reactive antibodies” value (recombinant bovine PrP) was “all groups except the peptide 5 group”, the “mean end-point titre, mouse no. 1” value (Balb/C mice) was 121.500 and the “mean end-point titre, mouse no. 2” value (Balb/C mice) was 40.500. For the same sequence, the “mean end-point titre, mouse no. 3” value (Balb/C mice) was 40.500 and the “mean end-point titre, mouse no. 4” value (Balb/C mice) was 40.500.

For CGGLGGYMLGSAMSRPLIH [PrP peptide 3], the “mean end-point titre, mouse no. 1” value (Balb/C mice) was 13.5000, the “mean end-point titre, mouse no. 2” value (Balb/C mice) was 13.500 and the “mean end-point titre, mouse no. 3” value (Balb/C mice) was 13.500. For the same sequence, the “mean end-point titre, mouse no. 4” value (Balb/C mice) was 40.500.

With CYYRPVDQYS [PrP peptide 6] the “mean end-point titre, mouse no. 1” value (Balb/C mice) was 13.500, the “mean end-point titre, mouse no. 2” value (Balb/C mice) was 500 and the “mean end-point titre, mouse no. 3” value (Balb/C mice) was 13.500. For the same sequence, the “mean end-point titre, mouse no. 4” value (Balb/C mice) was 1.500 and the “titres in NMRI mice compared with Balb/C” value (NMRI mice) was “the same or even higher titres”.

In the case of CTQYQRESQAYYQRG [PrP peptide 7], the “mean end-point titre, mouse no. 1” value (Balb/C mice) is reported as 121.500, the “mean end-point titre, mouse no. 2” value (Balb/C mice) is reported as 13.4500 and the “mean end-point titre, mouse no. 3” value (Balb/C mice) is reported as 40.500. For the same sequence, the “mean end-point titre, mouse no. 4” value (Balb/C mice) was 40.500.

CGQWNKPSKPKTN [PrP peptide 2] was tested, and the “mean end-point titre, mouse no. 1” value (Balb/C mice) was 121.500, the “mean end-point titre, mouse no. 2” value (Balb/C mice) was 40.500 and the “mean end-point titre, mouse no. 3” value (Balb/C mice) was 13.500. For the same sequence, the “mean end-point titre, mouse no. 4” value (Balb/C mice) was 13.500.
